# Laboratory results as given in patent publication US20140221354A1, “IMIDAZO [1,2-a]PYRIDINE COMPOUNDS FOR USE IN THERAPY” (EMBLEM Technology Transfer GmbH, priority 2011, published 2014).
# pEC50: −log10 of the molar value.
# System: CellSensor® HRE-bla HCT-116 stably transfected reporter cell line
# Assay: HIF/HRE reporter assay
# Type: cell-based
# Details: Homo sapiens, inhibition of activated HIF signaling response, hypoxic conditions induced with deferoxamine (DFO), 24 h incubation, blue/green emission ratio, read-out: Evaluation
# Description: Inhibition of an activated HIF signaling response under chemically-induced hypoxic conditions due to compound treatment was determined using the CellSensor® HRE-bla HCT-116 stably transfected reporter cell line from Invitrogen according to the manufacturer's instructions.
# Cells were maintained as described previously and seeded into 384-well, clear-bottom plates (Corning 3712) at 15000 cells/well in 32 μl assay medium (Opti-MEM [Invitrogen], 0.5% FBS, 100 U/ml penicillin, 100 μg/ml streptomycin, 0.1 mM non-essential amino acids [NEAA], 1 mM sodium pyruvate, 5 mM HEPES [pH 7.3]). Following a 2 h incubation period, compounds (4 μl) were subsequently added to the cells at 10× concentrations in 5% DMSO and incubated under normal conditions for 30 min. To induce hypoxic conditions, 4 μl of a 2 mM deferoxamine (DFO) solution was added to the cells followed by 24 h incubation under standard assay conditions (as described). Control wells included wells containing only medium (no cells) and wells treated with 0.5% DMSO instead of compound.
# Prior to the readout, the Substrate Loading Solution was prepared as described in the manufacturer's protocol and 10 μl added to each well. Following a further 2 h incubation period at room temperature and in the dark, fluorescence was measured at two wavelengths (blue channel: ex. 409 nm, em. 460 nm; green channel: ex. 409 nm, em. 530 nm) on a PerkinElmer Envision HTS. For the analysis, the average signal of the cell-free wells at 460 nm and 530 nm was first subtracted from the blue and green channel data, respectively. The blue/green emission ratios were then calculated for each well, dividing the background-corrected blue emission values by the background-corrected green emission values. […] values were determined from these ratios using GraphPad Prism (Prism 5, GraphPad software, Inc.).
row,pEC50,Structure (SMILES)
1,6.00 to 6.30,"CCCN1CCN(Cc2c(-c3ccc([N+](=O)[O-])cc3)nc3ccc(-c4ccccc4)cn23)CC1 [Example 5, 2-(4-nitrophenyl)-6-phenyl-3-((4-propylpiperazin-1-yl)methyl)imidazo[1,2-a]pyridine]"
2,< 6.00,"N#Cc1ccc(-c2nc3ccc(-c4cnco4)cn3c2CN2CCCNCC2)cc1 [Example 39, 4-(3-((1,4-diazepan-1-yl)methyl)-6-(oxazol-5-yl)imidazo[1,2-a]pyridin-2-yl)benzonitrile]"
3,< 6.00,"N#Cc1ccc(-c2nc3ccc(-c4ccc(C(N)=O)cc4)cn3c2CN2CCCNCC2)cc1 [Example 42, 4-(3-((1,4-diazepan-1-yl)methyl)-2-(4-cyanophenyl)imidazo[1,2-a]pyridin-6-yl)benzamide]"
4,> 6.30,"N#Cc1ccc(-c2nc3ccc(-c4ccccc4)cn3c2CN2CCCNCC2)cc1 [Example 9, 4-(3-((1,4-diazepan-1-yl)methyl)-6-phenylimidazo[1,2-a]pyridin-2-yl)benzonitrile]"
5,> 6.30,"Cc1ccc(-c2nc3ccc(-c4ccccc4)cn3c2CN2CCCNCC2)cc1 [Example 17, 3-((1,4-diazepan-1-yl)methyl)-6-phenyl-2-(p-tolyl)imidazo[1,2-a]pyridine]"
6,> 6.30,"O=[N+]([O-])c1ccc(-c2nc3ccc(-c4ccccc4)cn3c2CN2CCCNCC2)cc1 [Example 4, 3-((1,4-diazepan-1-yl)methyl)-2-(4-nitrophenyl)-6-phenylimidazo[1,2-a]pyridine]"
7,> 6.30,"COc1ccc(-c2ccc3nc(-c4ccc(C#N)cc4)c(CN4CCCNCC4)n3c2)cc1 [Example 41, 4-(3-((1,4-diazepan-1-yl)methyl)-6-(4-methoxyphenyl)imidazo[1,2-a]pyridin-2-yl)benzonitrile]"
8,< 6.00,"N#Cc1ccc(-c2nc3ccc(-c4cccnc4)cn3c2CN2CCCNCC2)cc1 [Example 29, 4-(3-((1,4-diazepan-1-yl)methyl)-6-(pyridin-3-yl)imidazo[1,2-a]pyridin-2-yl)benzonitrile]"
9,< 6.00,"N#Cc1ccc(-c2nc3ccc(-c4cncnc4)cn3c2CN2CCCNCC2)cc1 [Example 26, 4-(3-((1,4-diazepan-1-yl)methyl)-6-(pyrimidin-5-yl)imidazo[1,2-a]pyridin-2-yl)benzonitrile]"
10,> 6.30,"CN1CCCN(Cc2c(-c3ccc([N+](=O)[O-])cc3)nc3ccc(-c4ccccc4)cn23)CC1 [Example 12, 3-((4-methyl-1,4-diazepan-1-yl)methyl)-2-(4-nitrophenyl)-6-phenylimidazo[1,2-a]pyridine]"
11,6.00 to 6.30,"Cn1cccc1-c1ccc2nc(-c3ccc(C#N)cc3)c(CN3CCCNCC3)n2c1 [Example 38, 4-(3-((1,4-diazepan-1-yl)methyl)-6-(1-methyl-1H-pyrrol-2-yl)imidazo[1,2-a]pyridin-2-yl)benzonitrile]"
12,> 6.30,"Cc1ccc(-c2ccc3nc(-c4ccc(C#N)cc4)c(CN4CCCNCC4)n3c2)cc1 [Example 23, 4-(3-((1,4-diazepan-1-yl)methyl)-6-(p-tolyl)imidazo[1,2-a]pyridin-2-yl)benzonitrile]"
13,> 6.30,"N#Cc1ccc(-c2nc3ccc(-c4ccc(Cl)cc4)cn3c2CN2CCCNCC2)cc1 [Example 40, 4-(3-((1,4-diazepan-1-yl)methyl)-6-(4-chlorophenyl)imidazo[1,2-a]pyridin-2-yl)benzonitrile]"
14,< 6.00,"CC(=O)N1CCN(Cc2c(-c3cccc([N+](=O)[O-])c3)nc3ccc(-c4ccccc4)cn23)CC1 [Example 2, 1-(4-((2-(3-nitrophenyl)-6-phenylimidazo[1,2-a]pyridin-3-yl)methyl)piperazin-1-yl)ethanone]"
15,6.00 to 6.30,"CCN1CCN(Cc2c(-c3ccc([N+](=O)[O-])cc3)nc3ccc(-c4ccccc4)cn23)CC1 [Example 6, 3-((4-ethylpiperazin-1-yl)methyl)-2-(4-nitrophenyl)-6-phenylimidazo[1,2-a]pyridine]"
16,< 6.00,"N#Cc1ccc(-c2nc3ccc(-c4ccccc4)cn3c2CN2CCNC(=O)C2)s1 [Example 35, 5-(3-((3-oxopiperazin-1-yl)methyl)-6-phenylimidazo[1,2-a]pyridin-2-yl)thiophene-2-carbonitrile]"
17,6.00 to 6.30,"Cc1cc(-c2ccc3nc(-c4ccc(C#N)cc4)c(CN4CCCNCC4)n3c2)ccn1 [Example 28, 4-(3-((1,4-diazepan-1-yl)methyl)-6-(2-methylpyridin-4-yl)imidazo[1,2-a]pyridin-2-yl)benzonitrile]"
18,> 6.30,"N#Cc1ccc(-c2nc3ccc(-c4ccncc4)cn3c2CN2CCCNCC2)cc1 [Example 27, 4-(3-((1,4-diazepan-1-yl)methyl)-6-(pyridin-4-yl)imidazo[1,2-a]pyridin-2-yl)benzonitrile]"

row,pEC50,Structure (SMILES)
1,> 6.30,"CN1CCCN(Cc2c(-c3ccc(Cl)cc3)nc3ccc(-c4ccccc4)cn23)CC1 [Example 31, 2-(4-chlorophenyl)-3-((4-methyl-1,4-diazepan-1-yl)methyl)-6-phenylimidazo[1,2-a]pyridine]"
2,> 6.30,"Clc1ccc(-c2nc3ccc(-c4ccccc4)cn3c2CN2CCCNCC2)cc1 [Example 14, 3-((1,4-diazepan-1-yl)methyl)-2-(4-chlorophenyl)-6-phenylimidazo[1,2-a]pyridine]"
3,> 6.30,"N#Cc1ccc(-c2nc3ccc(-c4ccccc4)cn3c2CN2CCCNCC2)s1 [Example 21, 5-(3-((1,4-diazepan-1-yl)methyl)-6-phenylimidazo[1,2-a]pyridin-2-yl)thiophene-2-carbonitrile]"
4,6.00 to 6.30,"N#Cc1ccc(-c2nc3ccc(-c4ccccc4)cn3c2CN2CCCNCC2)cn1 [Example 16, 5-(3-((1,4-diazepan-1-yl)methyl)-6-phenylimidazo[1,2-a]pyridin-2-yl)picolinonitrile]"
5,> 6.30,"CN1CCCN(Cc2c(-c3ccc(C#N)cc3)nc3ccc(-c4ccccc4)cn23)CC1 [Example 34, 4-(3-((4-methyl-1,4-diazepan-1-yl)methyl)-6-phenylimidazo[1,2-a]pyridin-2-yl)benzonitrile]"
6,> 6.30,"N#Cc1cccc(-c2nc3ccc(-c4ccccc4)cn3c2CN2CCCNCC2)c1 [Example 22, 3-(3-((1,4-diazepan-1-yl)methyl)-6-phenylimidazo[1,2-a]pyridin-2-yl)benzonitrile]"
7,> 6.30,"O=C1CN(Cc2c(-c3ccc([N+](=O)[O-])cc3)nc3ccc(-c4ccccc4)cn23)CCN1 [Example 13, 4-((2-(4-nitrophenyl)-6-phenylimidazo[1,2-a]pyridin-3-yl)methyl)piperazin-2-one]"
8,> 6.30,"CN1CCCN(Cc2c(-c3ccc(C#N)s3)nc3ccc(-c4ccccc4)cn23)CC1 [Example 36, 5-(3-((4-methyl-1,4-diazepan-1-yl)methyl)-6-phenylimidazo[1,2-a]pyridin-2-yl)thiophene-2-carbonitrile]"
9,< 6.00,"O=C1CN(Cc2c(-c3ccc(Cl)cc3)nc3ccc(-c4ccccc4)cn23)CCN1 [Example 32, 4-((2-(4-chlorophenyl)-6-phenylimidazo[1,2-a]pyridin-3-yl)methyl)piperazin-2-one]"
10,< 6.00,"COc1ccc(-c2nc3ccc(-c4ccccc4)cn3c2CN2CCNC(=O)C2)cc1 [Example 30, 4-((2-(4-methoxyphenyl)-6-phenylimidazo[1,2-a]pyridin-3-yl)methyl)piperazin-2-one]"
11,> 6.30,"c1ccc(-c2ccc3nc(-c4cccnc4)c(CN4CCCNCC4)n3c2)cc1 [Example 15, 3-((1,4-diazepan-1-yl)methyl)-6-phenyl-2-(pyridin-3-yl)imidazo[1,2-a]pyridine]"
12,< 6.00,"N#Cc1ccc(-c2nc3ccc(-c4ccccc4)cn3c2CN2CCNC(=O)C2)cc1 [Example 33, 4-(3-((3-oxopiperazin-1-yl)methyl)-6-phenylimidazo[1,2-a]pyridin-2-yl)benzonitrile]"
13,> 6.30,"N#Cc1csc(-c2nc3ccc(-c4ccccc4)cn3c2CN2CCCNCC2)c1 [Example 20, 5-(3-((1,4-diazepan-1-yl)methyl)-6-phenylimidazo[1,2-a]pyridin-2-yl)thiophene-3-carbonitrile]"
14,> 6.30,"Cc1ccccc1-c1ccc2nc(-c3ccc(C#N)cc3)c(CN3CCCNCC3)n2c1 [Example 25, 4-(3-((1,4-diazepan-1-yl)methyl)-6-(o-tolyl)imidazo[1,2-a]pyridin-2-yl)benzonitrile]"
15,> 6.30,"c1ccc(-c2ccc3nc(-c4ccncc4)c(CN4CCCNCC4)n3c2)cc1 [Example 11, 3-((1,4-diazepan-1-yl)methyl)-6-phenyl-2-(pyridin-4-yl)imidazo[1,2-a]pyridine]"
16,< 6.00,"NC(=O)c1ccc(-c2nc3ccc(-c4ccccc4)cn3c2CN2CCCNCC2)cc1 [Example 10, 4-(3-((1,4-diazepan-1-yl)methyl)-6-phenylimidazo[1,2-a]pyridin-2-yl)benzamide]"
17,> 6.30,"COc1ccc(-c2nc3ccc(-c4ccccc4)cn3c2CN2CCCNCC2)cc1 [Example 18, 3-((1,4-diazepan-1-yl)methyl)-2-(4-methoxyphenyl)-6-phenylimidazo[1,2-a]pyridine]"
